Data: US9790211B2, “5-amino-quinoline-8-carboxamide derivatives as 5-HT4 receptor agonists” (SUVEN LIFE SCIENCES LIMITED, priority 2013, dated 2017)

Columns and labels:
sAPPα = assay: Estimation of mice brain cortical sAPPα levels (ELISA); assay type: in vivo; details: s.c., 60 minutes post treatment
Description: The control group of mice received sterile water for injection subcutaneously (s.c.). […] Mice were sacrificed 60 minutes after the drug injection by cervical dislocation, the brains were quickly isolated and the cortex was dissected at −20° C. The cortex was immediately kept on a dry ice and weighed before being stored at −80° C. until Enzyme-linked immunosorbent assay (ELISA) was performed. • 1. Brain tissues were thawed and Tris Buffer Saline containing protease inhibitors (TBS, 4 times by volume) added (0.8 mL/200 mg tissues). • 2. Brain tissue samples were homogenized using glass-Teflon homogenizer at 10 strokes. The resulting homogenates were centrifuged at 15,000 rpm at 4° C. for 60 minutes. • 3. The supernatant was discarded and to the precipitate, 4 times volume (0.8 mL/200 mg tissues) of TBS was added. Again homogenized followed by centrifugation at 15,000 rpm 4° C. for 30 minutes. • 4. From the above centrifuged mixture the supernatant was discarded and 10 times volume of 6M Guanidine-HCl in 50 mM Tris buffer pH: 7.6 (500 μL/50 mg tissues) was added. The resulting solution was sonicated for 5 seconds, 4 times. • 5. Resulting mixture was incubated at the RT for 30 minutes, followed by centrifugation at 15,000 rpm, 4° C. for 30 minutes. From this 5 μL of supernatant solution was taken and diluted with 155 μL of EIA buffer (dilution factor 32). Measurement of sAPPα by ELISA Kit: To investigate the role of an acute treatment of test compound on sAPPα levels, we measured the expression of this protein in homogenates from the cortex of treated and untreated mice by ELISA assay. The entire procedure was followed as described in the ELISA kit manual (Mouse/Rat sAPPα ELISA, Catalog Number: JP27415, […], Hamburg, Germany). Statistical analyses were performed using the Graph Pad Prism (Version 4). Data are Mean±SD of sAPPa levels expressed as percentage of control values (mice which received water for injection). Values were compared between the different groups by using unpaired t test. The significance level was set at *p<0.05; […]; ***<0.001.

[1] = test system: acetylcholine levels in the frontal cortex; assay: Modulation of acetylcholine from the frontal cortex (microdialysis); assay type: in vivo, male Wistar rats; details: p.o.
Excerpt: Male Wistar rats (240-300 gram body weights) were stereotaxically implanted with a microdialysis guide cannula in the frontal cortex (AP: +3.2 mm, ML: −3.2 mm, DV: −1.5 mm). Co-ordinates were taken according to Paxinos and Watson (2007) with reference points taken from bregma and vertical from the skull. The rats were allowed to recover individually for five days in a round bottom Plexiglas bowl with free access to feed and water.
One day prior to the microdialysis experiment, rats were connected to a dual quartz lined two-channel liquid swivel (Instech. UK) on a counter balance lever arm, which allowed unrestricted movements of the animal. […]
On the day of study, probe was perfused at a constant flow rate of 1.5 (μL/min with artificial cerebrospinal fluid (aCSF; NaCl 147 mM. KCl 3.0 mM, MgCl2 1.0 mM, CaCl2. 2H2O 1.3 mM, NaH2PO4.2H2O 0.2 mM and Na2HPO4. 7H2O 1.0 mM, pH 7.2). A stabilization period of 2 h was maintained and five basal samples were collected at 20 minutes intervals. The compound of Example 18 or vehicle was administered and dialysate samples were collected at 20 minutes interval for an additional period of 4 hours. Dialysates were stored below −70° C. until quantitation of acetylcholine.
Acetylcholine in dialysate was quantified in the calibration range of 0.103 nmol-103.497 nmol using LC-MS/MS method. […]

In the case of Nc1c(Cl)cc(C(=O)NCC2CCN(CC3CCOCC3)CC2)c2ncccc12.O=C(O)C(O)C(O)C(=O)O [Example 13, 5-Amino-6-chloro-N-{[1-(tetrahydro-2H-pyran-4-ylmethyl)-4-piperidinyl]methyl} quinoline-8-carboxamide L(+)-tartarate], the “increase in the mice brain cortical sAPPα levels” value (shortened to “increase”) (sAPPα; 0.3 mg/kg) is reported as 39%, the “increase” value (sAPPα; 1.0 mg/kg) is reported as 41% and the “increase” value (sAPPα; 3.0 mg/kg) is reported as 46%. The “increase” value (sAPPα; 10.0 mg/kg) was 66%, the “Area under the curve of acetylcholine change, frontal cortex (in words)” value ([1]; 10.0 mg/kg, vs vehicle, p<0.05) was “significant” and the “acetylcholine levels from the frontal cortex (in words)” value ([1]; 3.0 and 10.0 mg/kg, male Wistar rats) was “dose dependent increase”.
